From article PMC5641094, “A peptide antagonist of Prep1-p160 interaction improves ceramide-induced insulin resistance in skeletal muscle cells” (Oncotarget, 2017)

Tested on: Akt phosphorylation
Assay: Akt phosphorylation, Western blot
Type: cell-based, rat
Conditions: L6 cells with C2cer 10μM or Prep1 transfection, insulin 100nM
Experimental: Figure 5 Effect of Prep1(54-72) peptide on Akt phosphorylation and PGC-1α and GLUT4 protein levels (A-B) L6 control and Prep1 overexpressing cells were stimulated with Insulin (100nM) and/or C2cer (10μM) and incubated with Prep1(54-72). Protein lysates were analyzed by Western blot using antibodies for pAkt, Akt and for the beta-actin, as a loading control. (C) PGC-1α and GLUT4 protein levels were measured by using specific antibodies for these proteins and beta-actin antibody was used as loading control. Blots were detected by ECL and autoradiography. The autoradiographs are representative of four independent experiments. Asterisks denote statistically significant differences (*p<0.05; **p<0.01; ***p<0.001).
Total cell lysates were obtained and separated by SDS-PAGE. Briefly, cells were solubilized with lysis buffer containing 50mM HEPES, 150mM NaCl, 10mM EDTA, 10mM Na4P2O7, 2mM sodium orthovanadate, 50mM NaF, 1mM phenylmethylsulfonyl fluoride, 10μg/ml aprotinin, 10μg/ml leupeptin, pH 7.4, and 1% (v/v) Triton X-100. Lysates were clarified by centrifugation at 12,000g for 20 minutes at 4°C. The protein concentrations in the cell lysates were measured using a Bio-Rad DC (detergent compatible) assay. Immunoprecipitation and Western blot analysis have been performed as previously described.

Substance: Ac-KQAIYRHPLFPLLALLFEK-NH2 [Prep1(54-72)]
- effect on insulin stimulated Akt phosphorylation: rescued insulin effect
